ChEMBL document CHEMBL1152531, “Amphotericin B-induced ion flux is markedly attenuated in phosphatidylglycerol membrane as evidenced by a newly devised fluorometric method” (Bioorg Med Chem, 2009)
Activity calls are given as the source filed them. The rule behind the calls is not given here.

Assays:
Lipid bilayer [1] = experiment: Binding affinity to 1-palmitoyl-2-oleoyl-sn-glycero-3-phosphatidylglycerol bilayer membrane at 6.3 uM after 18 hrs by UV spectroscopy
[2] = (§1) Membrane permeabilizing activity across 1-palmitoyl-2-oleoyl-sn-glycero-3-phosphatidylglycerol liposome assessed as K+ ion influx at compound to lipid ratio of 0.001 to 0.01 after 18 hrs by BCECF staining-based fluorometric method; assay type: physicochemical; settings: artificial membrane
[3] = Membrane permeabilizing activity across cholesterol-containing 1-palmitoyl-2-oleoyl-sn-glycero-3-phosphocholine liposome assessed as K+ ion influx at compound to lipid ratio of 0.0001 to 0.001 after 18 hrs by BCECF staining-based fluorometric method; assay type: physicochemical; settings: artificial membrane
Lipid bilayer [4] = experiment: Binding affinity to 1-palmitoyl-2-oleoyl-sn-glycero-3-phosphocholine bilayer membrane at 6.3 uM after 18 hrs by UV spectroscopy
[5] = as §1, with “across large unilamellar vesicle containing” for “across”, “and 30% 1-palmitoyl-2-oleoyl-sn-glycero-3-phosphocholine” for “liposome”; assay type: physicochemical
[6] = Membrane permeabilizing activity across 1-palmitoyl-2-oleoyl-sn-glycero-3-phosphocholine liposome assessed as K+ ion influx at compound to lipid ratio of 0.001 to 0.01 after 18 hrs by BCECF staining-based fluorometric method; assay type: physicochemical; settings: artificial membrane
[7] = Membrane permeabilizing activity across 1-palmitoyl-2-oleoyl-sn-glycero-3-phosphocholine liposome assessed as K+ ion influx at compound to lipid ratio of 0.0001 to 0.001 after 18 hrs by BCECF staining-based fluorometric method; assay type: physicochemical; settings: artificial membrane
[8] = as §1, with “across large unilamellar vesicle containing” for “across”, “and 10% 1-palmitoyl-2-oleoyl-sn-glycero-3-phosphocholine” for “liposome”; assay type: physicochemical
[9] = Membrane permeabilizing activity across ergosterol-containing 1-palmitoyl-2-oleoyl-sn-glycero-3-phosphocholine liposome assessed as K+ ion influx at compound to lipid ratio of 0.0001 to 0.001 after 18 hrs by BCECF staining-based fluorometric method; assay type: physicochemical; settings: artificial membrane
[10] = Binding affinity to bilayer membrane of 1-palmitoyl-2-oleoyl-sn-glycero-3-phosphatidylglycerol and 30% 1-palmitoyl-2-oleoyl-sn-glycero-3-phosphocholine at 6.3 uM after 18 hrs by UV spectroscopy

- Activity (Lipid bilayer [1]): Active
- Activity [2]: Not Active
- Activity [3]: Not Active
- Activity (Lipid bilayer [4]): Active
- Activity [5]: Active
- Activity [6]: Active
- Activity [7]: Not Active
- Activity [8]: Active
- Activity [9]: Active
- Activity [10]: Active
Structure (SMILES): C[C@@H]1[C@H](O)[C@@H](C)/C=C/C=C/C=C/C=C/C=C/C=C/C=C/[C@H](O[C@@H]2O[C@H](C)[C@@H](O)[C@H](N)[C@@H]2O)C[C@@H]2O[C@](O)(C[C@@H](O)C[C@@H](O)[C@H](O)CC[C@@H](O)C[C@@H](O)CC(=O)O[C@H]1C)C[C@H](O)[C@H]2C(=O)O [AMPHOTERICIN B]
